How the values were obtained:
SK-MEL-2 = test: NCI cytotoxicity screen, Melanoma panel; assay type: cell-based; conditions: Homo sapiens, single dose 10 µM, negative = lethal, read-out: Percent growth inhibition
Protocol: (§1) Cytotoxicity was performed at National Cancer Institute (NCI), Bethesda, USA as per their protocols.

SK-MEL-5 = test: NCI cytotoxicity screen, Melanoma panel; assay type: cell-based; conditions: Homo sapiens, single dose 10 µM, negative = lethal, read-out: Percent growth inhibition
Protocol: as §1

UACC-257 = test: NCI cytotoxicity screen, Melanoma panel; assay type: cell-based; conditions: Homo sapiens, single dose 10 µM, negative = lethal, read-out: Percent growth inhibition
Protocol: as §1

MDA-MB-435 = test: NCI cytotoxicity screen, Melanoma panel; assay type: cell-based; conditions: Homo sapiens, MDA-MB-435, read-out: Percent growth inhibition
Protocol: as §1

SK-MEL-28 = test: NCI cytotoxicity screen, Melanoma panel; assay type: cell-based; conditions: Homo sapiens, single dose 10 µM, negative = lethal, read-out: Percent growth inhibition
Protocol: as §1

MALME-3M = test: NCI cytotoxicity screen, Melanoma panel; assay type: cell-based; conditions: Homo sapiens; MALME-3M; single dose 10 µM; negative = lethal; read-out: Percent growth inhibition
Protocol: as §1

K-562 = test: NCI cytotoxicity screen, Leukemia panel; assay type: cell-based; conditions: Homo sapiens, K562; K-562; single dose 10 µM; negative = lethal; read-out: Percent growth inhibition
Protocol: as §1

HL-60(TB) = test: NCI cytotoxicity screen, Leukemia panel; assay type: cell-based; conditions: Homo sapiens, HL-60, HL-60(TB); single dose 10 µM; negative = lethal; read-out: Percent growth inhibition
Protocol: as §1

MOLT-4 = test: NCI cytotoxicity screen, Leukemia panel; assay type: cell-based; conditions: Homo sapiens, MOLT-4, MOLT-4; single dose 10 µM; negative = lethal; read-out: Percent growth inhibition
Protocol: as §1

CCRF-CEM = test: NCI cytotoxicity screen, Leukemia panel; assay type: cell-based; conditions: Homo sapiens, single dose 10 µM, negative = lethal, read-out: Percent growth inhibition
Protocol: as §1

RPMI-8226 = test: NCI cytotoxicity screen, Leukemia panel; assay type: cell-based; conditions: Homo sapiens; RPMI-8226; single dose 10 µM; negative = lethal; read-out: Percent growth inhibition
Protocol: as §1

SR = test: NCI cytotoxicity screen, Leukemia panel; assay type: cell-based; conditions: Homo sapiens, single dose 10 µM, negative = lethal, read-out: Percent growth inhibition
Protocol: as §1

HCT-116 = test: NCI cytotoxicity screen, Colon Cancer panel; assay type: cell-based; conditions: Homo sapiens, single dose 10 µM, negative = lethal, read-out: Percent growth inhibition
Protocol: as §1

HT29 = test: NCI cytotoxicity screen, Colon Cancer panel; assay type: cell-based; conditions: Homo sapiens, HT-29; HT29; single dose 10 µM; negative = lethal; read-out: Percent growth inhibition
Protocol: as §1

HCT-15 = test: NCI cytotoxicity screen, Colon Cancer panel; assay type: cell-based; conditions: Homo sapiens, single dose 10 µM, negative = lethal, read-out: Percent growth inhibition
Protocol: as §1

COLO 205 = test: NCI cytotoxicity screen, Colon Cancer panel; assay type: cell-based; conditions: Homo sapiens, single dose 10 µM, negative = lethal, read-out: Percent growth inhibition
Protocol: as §1

OVCAR-3 = test: NCI cytotoxicity screen, Ovarian Cancer panel; assay type: cell-based, human; conditions: Homo sapiens; OVCAR-3; single dose 10 µM; negative = lethal; read-out: Percent growth inhibition
Protocol: as §1

ACHN = test: NCI cytotoxicity screen, Renal Cancer panel; assay type: cell-based; conditions: Homo sapiens, single dose 10 µM, negative = lethal, read-out: Percent growth inhibition
Protocol: as §1

SN12C = test: NCI cytotoxicity screen, Renal Cancer panel; assay type: cell-based; conditions: Homo sapiens, single dose 10 µM, negative = lethal, read-out: Percent growth inhibition
Protocol: as §1

CAKI-1 = test: NCI cytotoxicity screen, Renal Cancer panel; assay type: cell-based; conditions: Homo sapiens; CAKI-1; single dose 10 µM; negative = lethal; read-out: Percent growth inhibition
Protocol: as §1

A498 = test: NCI cytotoxicity screen, Renal Cancer panel; assay type: cell-based; conditions: Homo sapiens, single dose 10 µM, negative = lethal, read-out: Percent growth inhibition
Protocol: as §1

RXF 393 = test: NCI cytotoxicity screen, Renal Cancer panel; assay type: cell-based; conditions: Homo sapiens, single dose 10 µM, negative = lethal, read-out: Percent growth inhibition
Protocol: as §1

UO-31 = test: NCI cytotoxicity screen, Renal Cancer panel; assay type: cell-based; conditions: Homo sapiens, single dose 10 µM, negative = lethal, read-out: Percent growth inhibition
Protocol: as §1

NCI-H226 = test: NCI cytotoxicity screen, Non-Small Cell Lung Cancer panel; assay type: cell-based, human; conditions: Homo sapiens, single dose 10 µM, negative = lethal, read-out: Percent growth inhibition
Protocol: as §1

NCI-H322M = test: as above; assay type: cell-based, human; conditions: Homo sapiens, single dose 10 µM, negative = lethal, read-out: Percent growth inhibition
Protocol: as §1

NCI-522 = test: as above; assay type: cell-based, human; conditions: Homo sapiens; NCI-522; single dose 10 µM; negative = lethal; read-out: Percent growth inhibition
Protocol: as §1

NCI-H23 = test: as above; assay type: cell-based, human; conditions: Homo sapiens, single dose 10 µM, negative = lethal, read-out: Percent growth inhibition
Protocol: as §1

[1] = Experimental log P, shake-flask method; assay type: physicochemical; conditions: n-octanol/phosphate buffer pH 7.4, read-out: Exp. Log P
Protocol: Partition coefficients or experimental log P values of all synthesized compounds (9–23, 30 and 31) were calculated using the shake-flask method. Log P values were determined using n-octanol and phosphate buffer (pH = 7.4) at 10:1 ratio of volumes. Stock solutions (10^−3 M) of compounds were prepared in DMSO. Glass vials were used to make final solutions i.e. stock solution (250 µL) and phosphate buffer (125 µL). To record the absorbance, wavelength was selected based on λmax of the respective compound. Initial absorbance (Ai) for every compound was noted consuming the stock solution in the buffer phase. Now added n-octanol to every vial and shaken well using a mechanical shaker for 50 minutes. To get separation of both phases, glass vials were centrifuged for 35 min. at 2500 rpm. Then, the layer of octanol was separated from glass vial. The final absorbance (Af) of each compound was recorded by using the buffer layer. The values of P for compounds were determined by the following equation (Eq. 8):8 P=Ai−Af/Af×Vw/Vo

SNB-19 = test: NCI cytotoxicity screen, CNS Cancer panel; assay type: cell-based; conditions: Homo sapiens; SNB-19; single dose 10 µM; negative = lethal; read-out: Percent growth inhibition
Protocol: as §1

U251 = test: NCI cytotoxicity screen, CNS Cancer panel; assay type: cell-based; conditions: Homo sapiens, U-251; U251; single dose 10 µM; negative = lethal; read-out: Percent growth inhibition
Protocol: as §1

SF-539 = test: NCI cytotoxicity screen, CNS Cancer panel; assay type: cell-based; conditions: Homo sapiens, single dose 10 µM, negative = lethal, read-out: Percent growth inhibition
Protocol: as §1

SNB-75 = test: NCI cytotoxicity screen, CNS Cancer panel; assay type: cell-based; conditions: Homo sapiens, single dose 10 µM, negative = lethal, read-out: Percent growth inhibition
Protocol: as §1

SF-268 = test: NCI cytotoxicity screen, CNS Cancer panel; assay type: cell-based; conditions: Homo sapiens, single dose 10 µM, negative = lethal, read-out: Percent growth inhibition
Protocol: as §1

SF-295 = test: NCI cytotoxicity screen, CNS Cancer panel; assay type: cell-based; conditions: Homo sapiens, single dose 10 µM, negative = lethal, read-out: Percent growth inhibition
Protocol: as §1

DU-145 = test: NCI cytotoxicity screen, Prostate Cancer panel; assay type: cell-based, human; conditions: Homo sapiens, single dose 10 µM, negative = lethal, read-out: Percent growth inhibition
Protocol: as §1

PC-3 = test: NCI cytotoxicity screen, Prostate Cancer panel; assay type: cell-based, human; conditions: Homo sapiens, single dose 10 µM, negative = lethal, read-out: Percent growth inhibition
Protocol: as §1

EXVX = test: NCI cytotoxicity screen, Non-Small Cell Lung Cancer panel; assay type: cell-based; conditions: Homo sapiens; EXVX; single dose 10 µM; negative = lethal; read-out: Percent growth inhibition
Protocol: as §1

NCI-H460 = test: as above; assay type: cell-based; conditions: Homo sapiens, single dose 10 µM, negative = lethal, read-out: Percent growth inhibition
Protocol: as §1

HOP-62 = test: as above; assay type: cell-based; conditions: Homo sapiens, single dose 10 µM, negative = lethal, read-out: Percent growth inhibition
Protocol: as §1

A549/ATCC = test: as above; assay type: cell-based; conditions: Homo sapiens; A549/ATCC; single dose 10 µM; negative = lethal; read-out: Percent growth inhibition
Protocol: as §1

UACC-62 = test: NCI cytotoxicity screen, Melanoma panel; assay type: cell-based, human; conditions: Homo sapiens, single dose 10 µM, negative = lethal, read-out: Percent growth inhibition
Protocol: as §1

LOX IMVI = test: NCI cytotoxicity screen, Melanoma panel; assay type: cell-based, human; conditions: Homo sapiens, single dose 10 µM, negative = lethal, read-out: Percent growth inhibition
Protocol: as §1

M14 = test: NCI cytotoxicity screen, Melanoma panel; assay type: cell-based, human; conditions: Homo sapiens, single dose 10 µM, negative = lethal, read-out: Percent growth inhibition
Protocol: as §1

Compound: c1ccc2c(-c3cn4ccnc4c(-c4ccc5c(c4)ncn5C4CCCCC4)n3)cccc2c1 [Compound 12, 8-(1-cyclohexyl-1H-benzo[d]imidazol-5-yl)-6-(naphthalen-1-yl)imidazo[1,2-a]pyrazine]
- inhibition at 10 µM (SK-MEL-2): 20.6%
- inhibition at 10 µM (SK-MEL-5): 2.13%
- inhibition at 10 µM (UACC-257): 35.5%
- inhibition at 10 µM (MDA-MB-435): 4.07%
- inhibition at 10 µM (SK-MEL-28): < 1%
- inhibition at 10 µM (MALME-3M): < 1%
- inhibition at 10 µM (K-562): 38%
- inhibition at 10 µM (HL-60(TB)): ~50%
- inhibition at 10 µM (MOLT-4): ~50%
- inhibition at 10 µM (CCRF-CEM): 27.2%
- inhibition at 10 µM (RPMI-8226): 38.2%
- inhibition at 10 µM (SR): 10.9%
- inhibition at 10 µM (HCT-116): 23.7%
- inhibition at 10 µM (HT29): 16.5%
- inhibition at 10 µM (HCT-15): 15.3%
- inhibition at 10 µM (COLO 205): < 1%
- inhibition at 10 µM (OVCAR-3): 4.29%
- inhibition at 10 µM (ACHN): 8.22%
- inhibition at 10 µM (SN12C): 13.6%
- inhibition at 10 µM (CAKI-1): 20.7%
- inhibition at 10 µM (A498): < 1%
- inhibition at 10 µM (RXF 393): 0.15%
- inhibition at 10 µM (UO-31): 37.9%
- inhibition at 10 µM (NCI-H226): 17.9%
- inhibition at 10 µM (NCI-H322M): 8.38%
- inhibition at 10 µM (NCI-522): 33%
- inhibition at 10 µM (NCI-H23): 9.02%
- logP [1]: 1.48
- inhibition at 10 µM (SNB-19): 16.7%
- inhibition at 10 µM (U251): 27.9%
- inhibition at 10 µM (SF-539): 7.72%
- inhibition at 10 µM (SNB-75): 9.15%
- inhibition at 10 µM (SF-268): 11.8%
- inhibition at 10 µM (SF-295): 7.88%
- inhibition at 10 µM (DU-145): 6.09%
- inhibition at 10 µM (PC-3): 13.3%
- inhibition at 10 µM (EXVX): 29.6%
- inhibition at 10 µM (NCI-H460): 7.35%
- inhibition at 10 µM (HOP-62): 13.2%
- inhibition at 10 µM (A549/ATCC): 36.2%
- inhibition at 10 µM (UACC-62): 21%
- inhibition at 10 µM (LOX IMVI): 11.4%
- inhibition at 10 µM (M14): 0.39%

From PMC7162861, “Synthesis, cytotoxicity, pharmacokinetic profile, binding with DNA and BSA of new imidazo[1,2-a]pyrazine-benzo[d]imidazol-5-yl hybrids” (Scientific Reports, 2020)
